{
  "source": "patent US11986475B1",
  "about": "“Compositions and methods for treating cancer” (A2A Pharmaceuticals, Inc., priority 2022, dated 2024)",
  "key": {"HEC-59": {"tested_on": "HEC-59", "assay": "Cell viability assay (SRB or CTG) in HEC-59", "assay_type": "cell-based", "conditions": "Homo sapiens, 7 days total, media renewed at day 4, SRB or CTG", "method": "(§1) Human breast carcinoma cell line, MDA-MB-231 and human endometrial cancer cell line, HEC-59 were purchased from ATCC (American Type Culture Collection; USA). MDA-MB-231 cells were cultured in Dulbecco's modified Eagle's medium (Lonza, NJ, USA), and HEC-59 were grown in Iscove's Modified Dulbecco's Medium (Lonza, NJ, USA), supplemented with 10% fetal bovine serum (FBS, Lonza), 1% non-essential amino acid (NEAA), 2 mM L-glutamine (Sigma Aldrich, MO, USA) and 50 U/ml penicillin/streptomycin (P/S). All cell lines were tested regularly using MycoAlert Mycoplasma Detection Kit (Lonza). The cumulative length of the cells between thawing and use in the experiments was less than 20 passages.\n(§2) 4000 cells/well of MDA-MB-231 and HEC-59 cells were seeded in a 96 well plate in 80 μL media/well. Approximately 18 hours later, 3× drug solutions were prepared by serial dilution (100, 10, 5, 1, 0.5, 0.3, 0.1, 0.05, 0.01 μM), and the drug containing media was added to each well with a volume of 40 μL. For MDA-MB-231, 3 days after drug treatment, the SRB or CTG assay was performed. HEC59, the drug containing media was renewed at day 4. After 7 days total, the SRB or CTG assay was performed."}, "HEC-59 xenograft": {"tested_on": "HEC-59 xenograft", "assay": "HEC-59 xenograft tumor growth", "assay_type": "in vivo, female athymic Balb/c nude mice", "conditions": "20 mpk BID, 40 mpk QD and 30/40 mpk BID", "method": "(§3) Compound 80 was tested in other xenograft models using the following cell lines: triple negative breast cancer cell line, MDA-MB-231, ovarian cancer cell line, SKOV-3 and endometrium cell line, HEC-59. For the SKOV-3 xenograft, 1.5×10^7 SKOV-3 cells in 200 μl of 1:1 DMEM: Matrigel (Thermo Fisher, NJ, USA) and for the MDA-MB-231 xenograft, 1.5×10^7 MDA-MB-231 cells in 100 μl of 1:1 DMEM: Matrigel (Thermo Fisher, NJ, USA) for was injected in the right flank of six-to-eight-week-old female athymic Balb/c nude mice. When the tumor volume reached mean of ˜200 mm^3 mice for SKOV-3 xenografts and between 150-175 mm^3 for MDA-MB-231 xenografts, mice were randomized in a group of 8, and treatment was initiated vehicle, 20 mpk BID, 25 mpk BID and 30 mpk BID of Compound 80. For the HEC-59 xenografts, 1.×10^7 HEC-59 cells in 100 μl of DMEM (Lonza, NJ, USA) was injected in the right flank of six-to-eight-week-old female athymic Balb/c nude mice. When the tumor volume reached mean of ˜150 mm^3 mice were randomized in a group of 8 mice, and treatment was initiated vehicle, 20 mpk BID, 40 mpk QD and 30/40 mpk BID of Compound 80."}, "MDA-MB-231 xenograft": {"tested_on": "MDA-MB-231 xenograft", "assay": "MDA-MB-231 xenograft tumor growth", "assay_type": "in vivo, female athymic Balb/c nude mice", "conditions": "MDA-MB-231 xenograft, 20, 25 and 30 mpk BID", "method": "as §3"}, "SKOV-3 xenograft": {"tested_on": "SKOV-3 xenograft", "assay": "SKOV-3 xenograft tumor growth", "assay_type": "in vivo, female athymic Balb/c nude mice", "conditions": "SKOV-3 xenograft, 20, 25 and 30 mpk BID", "method": "as §3"}, "RKO xenograft": {"tested_on": "RKO xenograft", "assay": "RKO colon cancer xenograft tumor growth", "assay_type": "in vivo, female athymic Balb/c nude mice", "method": "Six-to-eight-week-old female athymic Balb/c nude mice were housed with a temperature-controlled and 12-hour light/12-hour dark cycle environment. For in vivo colon cancer tumor growth, 5×10^6 RKO cells were prepared in 100 μl of DMEM and injected into right flank of female nude mice. Mouse weight and tumor volume were measured twice a week. Tumor volumes were calculated as length×width^2×0.5. Once the tumor volume had reached about 150-175 mm^3, xenografts were randomized into groups (8 mice per group). Animals were treated with vehicle, Compound 80 or oxaliplatin as mentioned in the table. The formulation for vehicle and Compound 80 was 50% PEG400 and 20% Cremophor RH40 final (50% of 40% Cremophor) in Acetate buffer, PH=4. Oxaliplatin was prepared in glucose solution. The mice were sacrificed after around 3 weeks or if the tumors reached a predefined tumor volume cut-off of 2500 mm^3."}, "MDA-MB-231": {"tested_on": "MDA-MB-231", "assay": "Cell viability assay (SRB or CTG) in MDA-MB-231", "assay_type": "cell-based", "conditions": "Homo sapiens, MDA-MB-231, 72 h, 3 days after drug treatment", "method": "as §1, §2"}},
  "data": [
    {"smiles": "C[C@@H]1CN(c2ncc(F)c(Nc3cc(-c4ccc(OC(F)F)cc4)cnn3)n2)C[C@H](C)O1", "note": "[Compound 80, 5-(4-(difluoromethoxy)phenyl)-N-(2-((2R,6S)-2,6-dimethylmorpholino)-5-fluoropyrimidin-4-yl)pyridazin-3-amine]", "values": [
      {"measurement": "IC50", "setting": "HEC-59", "result": 0.236, "unit": "µM"},
      {"measurement": "tumor growth inhibition or regression", "setting": "HEC-59 xenograft", "result": "Statistically significant tumor growth inhibition or regression was observed"},
      {"measurement": "tumor growth inhibition or regression", "setting": "MDA-MB-231 xenograft", "result": "Statistically significant tumor growth inhibition or regression was observed"},
      {"measurement": "tumor growth inhibition or regression", "setting": "SKOV-3 xenograft", "result": "Statistically significant tumor growth inhibition or regression was observed"},
      {"measurement": "tumor growth inhibition (in words)", "setting": "RKO xenograft; RKO xenograft, 20 and 30 mg/kg BID, 50 mg/kg QD PO", "result": "strong tumor growth inhibition in a dose-dependent manner"},
      {"measurement": "TGI", "setting": "RKO xenograft; RKO xenograft, at the highest dose, PO, 20 days", "result": 85, "unit": "%"},
      {"measurement": "tumor growth inhibition compared to the standard of care (FIG. 1)", "setting": "RKO xenograft; xenograft model, versus standard of care (oxaliplatin)", "result": "superior tumor growth inhibition"},
      {"measurement": "IC50", "setting": "MDA-MB-231", "result": 0.398, "unit": "µM"}
    ]}
  ]
}
